Several values for one entry are separate records, joined by “and”; a condition that tells them apart may be missing. Identical values can stand only once.
Legend:
5-HT3 receptor [1] = biological target: T1, 5-HT3 receptor (Mus musculus, UniProt P23979); assay: Homogenate saturation binding with 3H-GR65630 in cortical membranes of transgenic and B6SJL/F1 control mice
T1 construct: cortices and cerebelli were removed and homogenized by hand in ice cold Hepes buffer; from tissue; host or cells: Washed membranes from cortex, cerebellum, liver, lung, heart, spleen, kidney, small intestine, testis and skeletal muscle of transgenic and B6SJL/F1 control mice
T1 sequence (P23979 24-489): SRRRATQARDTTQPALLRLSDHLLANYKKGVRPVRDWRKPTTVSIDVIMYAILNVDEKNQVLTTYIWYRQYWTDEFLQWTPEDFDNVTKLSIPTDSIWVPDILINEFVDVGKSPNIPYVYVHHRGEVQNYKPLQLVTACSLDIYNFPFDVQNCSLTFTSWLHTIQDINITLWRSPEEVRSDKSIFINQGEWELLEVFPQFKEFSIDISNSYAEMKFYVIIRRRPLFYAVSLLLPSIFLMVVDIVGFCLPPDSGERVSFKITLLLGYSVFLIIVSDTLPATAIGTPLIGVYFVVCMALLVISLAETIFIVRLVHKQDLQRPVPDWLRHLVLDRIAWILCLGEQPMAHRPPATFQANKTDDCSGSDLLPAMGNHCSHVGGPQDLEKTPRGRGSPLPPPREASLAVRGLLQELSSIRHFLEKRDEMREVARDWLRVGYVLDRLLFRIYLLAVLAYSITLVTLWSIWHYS
Method: (§1) For homogenate binding studies, cortices and cerebelli were removed and homogenized by hand in ice cold Hepes buffer (50 mM, pH 7.5) and centrifuged at 500 g for 5 minutes at 4° C. Liver, lung, heart, spleen, kidney, small intestines, testes, and skeletal muscle (from hind limb) were homogenized with an Omni tissue chopper. Membranes were pelleted by centrifugation at 20,000 g for 20 minutes at 4° C. and the pellets washed twice before suspension to 3 mg/ml in a buffer containing 145 mM NaCl, 5 mM KCl, 1, mM MgCl2, 1 mM CaCl2, 10 mM glucose, and 10 mM TRIS, pH 7.5. Saturation curves were carried out with 0.0125-25 nM ^3H-GR65630 at 37° C. for 30 minutes with 300 μg total protein. Incubation was terminated by dilution with ×10 volume (5 ml) of ice-cold buffer followed by rapid filtration onto Whatman GF/B filters. Filters were washed twice with 5 ml ice-cold buffer and counted by scintillation counting in EcoLite (ICN) scintillation cocktail. Non-specific binding (NSB) was determined with 0.125-256 μM tropisetron. Displacement binding was carried out the same as saturation binding except with 1 nM ^3H-GR65630 and NSB defined with 10 μM tropisetron. Protein concentrations were determined by Folin phenol reagent (Lowry et al., J. Biol. Chem. 193: 256-275, 1951).

5-HT3 receptor [2] = assay: as above; design: species or system mouse; details: cortical membranes, B6SJL/F1 control mice
Method: as §1

5-HT3 receptor [3] = biological target: T1, 5-HT3 receptor; assay: Specific binding with 3H-GR65630 in membranes from various tissues of transgenic and B6SJL/F1 control mice; details: Cortex membranes, transgenic mice
Method: as §1

5-HT3 receptor [4] = assay: as above; design: species or system mouse
Method: as §1

[5] = cortical membranes, 5-HT3 transgenic mice

Cc1[nH]cnc1CCC(=O)c1cn(C)c2ccccc12 [^3H-GR65630] was tested, and the Bmax (5-HT3 receptor [1]; [5]) was 2155 fmol/mg protein and 2155±129 fmol/mg protein, the “Hill no. (Hill plot slope)” value (5-HT3 receptor [1]; [5]) was 1.0 and the Kd (5-HT3 receptor [1]; [5]) was 1.7 nM. The Bmax (5-HT3 receptor [1]; transgenic mice membranes) was 2.5 pmol/mg protein, the Bmax (5-HT3 receptor [2]) was 21 fmol/mg protein and 21±10 fmol/mg protein and the Kd (5-HT3 receptor [2]; n=3 (FIG. 2 legend, unit inferred)) was 1.6 ± 2.3 nM. The “Specific binding (means ± SEM)” value (5-HT3 receptor [3]) was 969.6 ± 190.5 fmol/mg protein, the “Specific binding (means ± SEM)” value (5-HT3 receptor [4]; Cortex membranes, B6SJL/F1 control mice) was 7.2 ± 2.9 fmol/mg protein and the “Specific binding (means ± SEM)” value (5-HT3 receptor [4]; Heart membranes, B6SJL/F1 control mice) was 0.25 ± 5.4 fmol/mg protein. The “Specific binding (means ± SEM)” value (5-HT3 receptor [4]; Heart membranes, transgenic mice) was 3.9 ± 1.8 fmol/mg protein, the “Specific binding (means ± SEM)” value (5-HT3 receptor [4]; Kidney membranes, B6SJL/F1 control mice) was 3.9 ± 3.1 fmol/mg protein and the “Specific binding (means ± SEM)” value (5-HT3 receptor [4]; Kidney membranes, transgenic mice) was 16.9 ± 8.0 fmol/mg protein. The “Specific binding (means ± SEM)” value (5-HT3 receptor [4]; Lung membranes, transgenic mice) was 2.7 ± 4.1 fmol/mg protein, the “Specific binding (means ± SEM)” value (5-HT3 receptor [4]; Skeletal muscle membranes, B6SJL/F1 control mice) was 2.7 ± 0.4 fmol/mg protein and the “Specific binding (means ± SEM)” value (5-HT3 receptor [4]; Skeletal muscle membranes, transgenic mice) was 8.0 ± 2.7 fmol/mg protein. The “Specific binding (means ± SEM)” value (5-HT3 receptor [4]; Small intestines membranes, B6SJL/F1 control mice) was 26.6 ± 11.0 fmol/mg protein, the “Specific binding (means ± SEM)” value (5-HT3 receptor [4]; Small intestines membranes, transgenic mice) was 26.0 ± 7.7 fmol/mg protein and the “Specific binding (means ± SEM)” value (5-HT3 receptor [4]; Spleen membranes, B6SJL/F1 control mice) was 1.7 ± 3.9 fmol/mg protein. For the same compound, the “Specific binding (means ± SEM)” value (5-HT3 receptor [4]; Spleen membranes, transgenic mice) was 8.2 ± 7.2 fmol/mg protein.

— patent US6630612B2, “5-HT3 receptor assay using transgenic mammal” (University of New Mexico, priority 1997, dated 2003)
